Results taken from PubChem BioAssay AID624129 (Sanford-Burnham Center for Chemical Genomics, 2012).
pIC50: −log10 of the molar value. Calls of active or inactive are those of the source. The rule behind the calls is not given here.

Columns and labels:
Experiment in all cases: CXCR6 receptor antagonists, dose response, cell-based, beta-arrestin, DiscoveRx, APJ panel, uHTS hits (AID 624129)
[1] = biological target: Apelin receptor (Homo sapiens) (UniProt P35414); settings: CXCR6 beta-arrestin (DiscoveRx) antagonist cell assay, APJ
[2] = biological target: Beta-galactosidase (Escherichia coli) (UniProt Q8VNN2); settings: CXCR6 beta-arrestin (DiscoveRx) antagonist cell assay, b-galactosidase
Chain of Beta-galactosidase (Escherichia coli) (Q8VNN2 whole entry, looked up): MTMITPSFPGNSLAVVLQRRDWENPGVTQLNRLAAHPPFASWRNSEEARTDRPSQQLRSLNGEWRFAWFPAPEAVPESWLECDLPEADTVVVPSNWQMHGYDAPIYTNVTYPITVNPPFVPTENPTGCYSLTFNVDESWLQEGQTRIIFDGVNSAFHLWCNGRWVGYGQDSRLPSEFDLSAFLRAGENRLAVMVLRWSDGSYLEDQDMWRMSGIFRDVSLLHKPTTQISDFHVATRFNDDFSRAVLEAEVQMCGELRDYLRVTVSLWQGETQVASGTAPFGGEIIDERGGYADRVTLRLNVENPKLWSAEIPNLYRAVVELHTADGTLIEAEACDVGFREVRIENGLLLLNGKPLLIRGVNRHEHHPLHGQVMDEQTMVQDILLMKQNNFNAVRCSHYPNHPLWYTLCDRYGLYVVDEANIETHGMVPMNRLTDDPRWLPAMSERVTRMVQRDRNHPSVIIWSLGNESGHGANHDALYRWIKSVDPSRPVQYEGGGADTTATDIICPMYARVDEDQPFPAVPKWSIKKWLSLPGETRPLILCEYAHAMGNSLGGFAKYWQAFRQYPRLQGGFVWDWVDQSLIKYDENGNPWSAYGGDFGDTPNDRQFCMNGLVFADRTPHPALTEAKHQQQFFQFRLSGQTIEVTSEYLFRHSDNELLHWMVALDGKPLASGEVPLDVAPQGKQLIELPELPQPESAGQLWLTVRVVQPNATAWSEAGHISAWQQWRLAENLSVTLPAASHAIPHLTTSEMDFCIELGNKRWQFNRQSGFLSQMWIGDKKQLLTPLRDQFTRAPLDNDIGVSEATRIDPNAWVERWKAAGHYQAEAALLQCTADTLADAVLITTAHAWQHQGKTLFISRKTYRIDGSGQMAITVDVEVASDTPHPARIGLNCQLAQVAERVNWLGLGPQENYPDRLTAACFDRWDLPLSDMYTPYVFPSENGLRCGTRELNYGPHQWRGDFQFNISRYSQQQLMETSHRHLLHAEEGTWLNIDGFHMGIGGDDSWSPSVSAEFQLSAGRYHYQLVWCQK

[3] = biological target: C-C chemokine receptor type 6 (Homo sapiens) (UniProt P51684); settings: CXCR6 beta-arrestin (DiscoveRx) antagonist cell assay
[4] = biological target: C-X-C chemokine receptor type 6 (Homo sapiens) (UniProt O00574); settings: CXCR6 beta-arrestin (DiscoveRx) antagonist cell assay; for inhibition: CXCR6, run 1, dose range 2, at 80 µM (top of the series)
Chain of C-X-C chemokine receptor type 6 (Homo sapiens) (O00574 whole entry, looked up): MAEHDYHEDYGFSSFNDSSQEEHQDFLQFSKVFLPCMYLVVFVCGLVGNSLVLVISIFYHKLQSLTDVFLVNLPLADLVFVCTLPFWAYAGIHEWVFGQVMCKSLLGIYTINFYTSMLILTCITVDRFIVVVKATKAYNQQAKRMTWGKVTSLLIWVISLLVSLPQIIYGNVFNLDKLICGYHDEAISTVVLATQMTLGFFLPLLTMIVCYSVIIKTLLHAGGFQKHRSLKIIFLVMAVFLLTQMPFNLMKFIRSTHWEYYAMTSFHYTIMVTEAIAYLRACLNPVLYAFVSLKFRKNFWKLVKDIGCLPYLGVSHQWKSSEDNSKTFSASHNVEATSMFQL

[5] = dose range 1, mean IC50 across replicates
[6] = CCR6, dose range 1, mean IC50 across replicates
[7] = CXCR6, dose range 1, mean IC50 across replicates

Compound	pIC50 ([1]; dose range 1)	pIC50 [1, 5]	pIC50 ([1]; run 2, dose range 1)	pIC50 ([1]; run 3, dose range 1)	pIC50 ([2]; dose range 1)	pIC50 [2, 5]	pIC50 ([3]; CCR6, dose range 1)	pIC50 [3, 6]	pIC50 ([3]; CCR6, run 2, dose range 1)	IC50 ([4]; CXCR6, dose range 1)	pIC50 [4, 7]	inhibition [4] [%]	pIC50 ([4]; CXCR6, run 2, dose range 1)	IC50 ([2]; dose range 1)	pIC50 ([4]; CXCR6, dose range 1)	pIC50 ([4]; CXCR6, run 1, dose range 2)	pIC50 ([4]; CXCR6, run 2, dose range 2)
N#CC(C#N)=C1C=CC=CN1/C(=C\c1ccco1)C(=O)c1ccc(Cl)cc1	4.52	4.49	4.47	4.47	4.82	4.82	4.68	4.73	4.79	inactive	4.55	125	4.60				
O=C(Cn1sc2ccccc2c1=O)NC12CC3CC(CC(C3)C1)C2	5.69	5.49	5.26	5.68		< 4.10	5.81	5.78	5.75		5.62	70.8	5.67	> 80 µM (inactive)	5.57		
CCCC1CCC(=NNC(=S)NCCc2ccccc2)CC1 (centres undefined)		< 4.10	< 4.10	< 4.10		< 4.10		< 4.10	< 4.10	> 80 µM (inactive)	< 4.10	-19	< 4.10	> 80 µM (inactive)			
COc1ccc(C(=O)/C=C/C(=O)N(CC(=O)NC2CCCCC2)Cc2cccs2)c(O)c1		< 4.10	< 4.10	< 4.10		< 4.10		< 4.10	< 4.10	> 80 µM (inactive)	< 4.10	-73	< 4.10	> 80 µM (inactive)			
N#CC(C#N)=C1C=CC=CN1/C(=C\c1ccco1)C(=O)c1ccccc1	5.32	5.41	5.49	5.43		< 4.10	5.54	5.53	5.52		5.43		5.44	> 80 µM (inactive)	5.45	5.40	5.42
COC(=O)c1ccc2c(c1)C(C)(C)C(/C=C/c1ccc(OC)c(OC)c1OC)=[N+]2C	4.82	4.82	4.85	4.80		< 4.10	5.12	5.03	4.96		5.04		4.98	> 80 µM (inactive)	4.94	5.13	5.14
CCS(=O)(=O)c1ncc(Cl)c(C(=O)Nc2ccc(S(=O)(=O)N3CCCC(C)C3)cc2)n1 (centres undefined)	5.03	5.06	5.05	5.10		< 4.10	5.16	5.15	5.13		5.04		4.99	> 80 µM (inactive)	5.02	5.12	5.05
Cc1[nH][nH]c(=O)c1C(c1c(C)[nH][nH]c1=O)c1cn(Cc2ccc(Cl)c(Cl)c2)c2ccccc12	4.71	4.43	4.23	4.49		< 4.10	4.78	4.66	4.56	inactive	4.58	115	4.61	> 80 µM (inactive)			
Cc1ccc(NC(=S)N/N=C/c2ccc([N+](=O)[O-])s2)cc1	5.03	4.72	4.74	4.52	4.50	4.50	5.41	5.30	5.20		5.13		5.05		5.04	5.25	5.21
O=C(/C=C/c1cccc([N+](=O)[O-])c1)c1ccc([N+](=O)[O-])o1		< 4.10	< 4.10	< 4.10		< 4.10	5.17	4.68	4.46	inactive	4.72		< 4.10	> 80 µM (inactive)		5.11	5.12
C/C(=N\NC(=O)C(c1ccccc1)c1ccccc1)c1ccccn1	5.14	4.92	5.03	4.71		< 4.10	5.70	5.65	5.60		5.33		4.96	> 80 µM (inactive)	5.52	5.65	5.61
